Source: patent publication US20030109418A1, “Methods for identifying compounds for inhibition of neoplastic lesions, and pharmaceutical compositions containing such compounds” (priority 1999, published 2003)
Structures can show the parent of a compound that is named as a salt.

Assays:
Colo 205 = assay: Growth inhibition, neutral red assay, Colo 205; assay type: cell-based, human; conditions: free base, five days
Protocol: (§1) Compound I's activity is not confined to activity against colon cancer cell lines or animal models of colon cancer. It has a broad range of anti-neoplastic effects in various neoplastic cell lines. Various types of human cancer cell lines were propagated under sterile conditions in RPMI 1640 medium with 10% fetal bovine serum, 2 mM L-glutamine and sodium bicarbonate. To determine growth inhibitory effects of Compound I, cells were seeded in 96-well plates at a density of 1000 cells per well. Twenty-four hours after plating, the cells were dosed with various concentrations of the free base of Compound I solubilized in DMSO (final concentration 0.1%). The effect of the drug on tumor cell growth was determined using the neutral red cytotoxicity assay following five days of continuous treatment. Neutral red is a dye that is selectively taken up by viable cells by an ATP-dependent transport mechanism.

[1] = system: LNCaP prostate tumor cell line; assay: Histone-associated DNA fragmentation in prostate tumor cells; assay type: cell-based; conditions: 50 μM free base, after 24 hours, sustained up to 4 days
Protocol: The androgen-sensitive prostate tumor cell line, LNCaP (from ATCC (Rockville, Md.)) was propogated under standard conditions using […] medium containing 5% fetal calve serum and 2 mM glutamine. Primary prostate epithelial cell cultures (PrEC) derived from normal prostate (from Clonetics Inc. (San Diego, Calif.)) were grown under the same conditions as the tumor cell line except a serum-free medium optimized for the growth of such cultures was used (Clonetics Inc). For the experiments, LNCaP or PrEC cells were seeded in 96 well plates at a density of 10,000 cells per well. After 24 hours, the cells were treated with either vehicle (0.1% DMSO) or 50 μM Compound I (free base) solubilized in DMSO. After various drug treatment times (4, 24, 48, 72, or 99 hours) the cells were lysed and processed for measurement of histone-associated DNA as an indicator of apoptotic cell death (see, Piazza et al., Cancer Research 57: 2452-2459, 1997).
This is in marked contrast to conventional chemotherapeutics that induce apoptosis or necrosis in rapidly growing normal and neoplastic cells alike.

[2] = Single, escalating dose human safety study; assay type: in vivo; conditions: single escalating oral doses
[3] = system: panel of cultured human cell lines derived from various tissue origins; assay: Growth inhibition, neutral red assay, whole panel; assay type: cell-based; conditions: all cell lines of the panel, read-out: GI50 value calculated for all cell lines
Protocol: as §1

PC-3 = assay: Growth inhibition, neutral red assay, PC-3; assay type: cell-based, human; conditions: free base, five days
Protocol: as §1

HT-29 cells = assay: Apoptosis and necrosis by morphology (acridine orange and ethidium bromide); assay type: cell-based, human; conditions: HT-29 treated for six days
Description: Apoptosis occurs naturally during normal tissue turnover and during embryonic development of organs and limbs. Apoptosis also is induced by cytotoxic T-lymphocytes and natural killer cells, by ionizing radiation and by certain chemotherapeutic drugs. Inappropriate regulation of apoptosis is thought to play an important role in many pathological conditions including cancer, AIDS, or Alzheimer's disease, etc. Compounds can be screened for induction of apoptosis using cultures of tumor cells maintained under conditions as described above. Treatment of cells with test compounds involves either pre- or post-confluent cultures and treatment for two to seven days at various concentrations. Apoptotic cells are measured in both the attached and “floating” compartments of the cultures. Both compartments are collected by removing the supernatant, trypsinizing the attached cells, and combining both preparations following a centrifugation wash step (10 minutes, 2000 rpm). The protocol for treating tumor cell cultures with sulindac and related compounds to obtain a significant amount of apoptosis has been described in the literature. (See, Piazza, G. A., et al., Cancer Research, 55:3110-16, 1995, which is incorporated herein by reference). The novel features include collecting both floating and attached cells, identification of the optimal treatment times and dose range for observing apoptosis, and identification of optimal cell culture conditions.
Following treatment with a compound, cultures can be assayed for apoptosis and necrosis by florescent microscopy following labeling with acridine orange and ethidium bromide. The method for measuring apoptotic cell number has previously been described by Duke & Cohen, “Morphological And Biochemical Assays Of Apoptosis,” Current Protocols In Immunology, Coligan et al., eds., 3.17.1-3.17.16 (1992, which is incorporated herein by reference).
For example, floating and attached cells can be collected by trypsinization and washed three times in PBS. Aliquots of cells can be centrifuged. The pellet can then be re-suspended in media and a dye mixture containing acridine orange and ethidium bromide prepared in PBS and mixed gently. The mixture can then be placed on a microscope slide and examined for morphological features of apoptosis.
Reference compounds and test compounds were analyzed for their novel PDE inhibitory activity in accordance with the protocols for the assay, supra. […] Apoptotic and necrotic cell death was determined previously (Duke and Cohen, In: Current Protocols in Immunology, 3.17.1-3.17.16, New York, John Wiley and Sons, 1992). […] All data were collected from the same experiment.
The apoptosis inducing activity for a series of phosphodiesterase inhibitors was determined. HT-29 cell were treated for 6 days with various inhibitors of phosphodiesterase. Apoptosis and necrosis were determined morphologically after acridine orange and ethidium bromide labeling in accordance with the assay described, supra.

[4] = system: HT-29 colon adenocarcinoma cells; assay: Apoptosis by DNA fragmentation assay in HT-29; assay type: cell-based, human; conditions: qualitative activity profile; further: key: −: Not active; +: Slightly active; ++: Moderately active; +++: Strongly active; ++++: Highly active
UACC375, Melanoma = assay: Growth inhibition, SRB assay, UACC375; assay type: cell-based; conditions: Homo sapiens, UACC-375
Description: A compound's ability to inhibit tumor cell growth can be measured using the HT-29 human colon carcinoma cell line obtained from ATCC. HT-29 cells have previously been characterized as a relevant colon tumor cell culture model (Fogh, J., and Trempe, G. In: Human Tumor Cells in Vitro, J. Fogh (eds.), Plenum Press, New York, pp. 115-159, 1975). HT-29 cells are maintained in RPMI media supplemented with 5% fetal bovine calf serum (Gemini Bioproducts, Inc., Carlsbad, Calif.) and 2 mm glutamine, and 1% antibiotic-antimycotic in a humidified atmosphere of 95% air and 5% CO2 at 37° C. Briefly, HT-29 cells are plated at a density of 500 cells/well in 96 well microtiter plates and incubated for 24 hours at 37° C. prior to the addition of compound. […] After six days in culture, the cells are fixed by the addition of cold trichloroacetic acid to a final concentration of 10% and protein levels are measured using the sulforhodamine B (SRB) colorimetric protein stain assay as previously described by Skehan, P., Storeng, R., Scudiero, D., Monks, A., McMahon, J., Vistica, D., Warren, J. T., Bokesch, H., Kenney, S., and Boyd, M. R., “New Colorimetric Assay For Anticancer-Drug Screening,” J. Natl. Cancer Inst. […]
To show the effectiveness of this screening method on various forms of neoplasia, compounds were tested on numerous cell lines. […] The IC50 values were determined by the SRB assay. […]

SMILES	GI50 (Colo 205; Homo sapiens, COLO 205, 120 h) [µM]	GI90 μM, Colo 205 (Colo 205) [µM]	histone-associated fragmented DNA in LNCaP [1]	side effects in humans [2]	GI50 [3] [µM]	GI50 (PC-3; Homo sapiens, PC-3, 120 h) [µM]	GI90 μM, PC-3 (PC-3) [µM]	apoptotic and necrotic cell death (HT-29 cells)	Apoptosis [4]	IC50 (UACC375, Melanoma) [µM]
CC1=C(CC(=O)NCc2ccccc2)c2cc(F)ccc2/C1=C\c1ccncc1 [Compound I, (Z)-5-fluoro-2-methyl-(4-pyridylidene)-3-(N-benzyl)indenylacetamide hydrochloride]	1.6	2.4	significant increase in fragmented DNA	no significant side effects at any dose	1 to 2	1.7	82.5			
CC1=C(CC(=O)O)c2cc(F)ccc2/C1=C\c1ccc(S(C)(=O)=O)cc1 [Exisulind, 5-fluoro-2-methyl-1-(p-methylsulfonylbenzylidene)-3-indenylacetic acid]								capable of causing apoptotic cell death without inducing necrosis	++	100
